According to patent publication US20060241026A1, “Novel cyclic peptides and use thereof as anti-microbial agents” (priority 2002, published 2006):
≈ marks a conversion by molar mass, not a printed value. Entries after “also recorded” stand apart in the source; their conditions may differ. Like-named read-outs stand apart in the source and are kept apart here. Positions of bridges follow the written chain, without caps; N, C: chain ends. Residues, ends and D or L forms follow the SMILES beside them.

Tests used:
Bacillus megaterium = format: cell-based
Method: (§1) The activity of the synthetic peptides was tested with respect to the Gram+ bacteria Mycrocossus luteus, Staphylococcus aureus, Staphylococcus epidermidis and Bacillus megaterium. The activities were determined according to the protocol described by HANCOCK et al. (http://www.interchg.ubc.ca/bobh/methods.htm)
(§2) The MIC was determined for each peptide by inhibition of growth in liquid medium. Doubling dilution of peptide was realized in the wells of a Microtest plate in a volume of 10 μl. The bacteria were grown in MUELLER HINTON BROTH (MHB, Difco) liquid medium. During the exponential growth phase, a solution with an optical density of 0.001 at 600 nm was produced, and 100 μl of this suspension were added to each well. The incubation lasted 24 h at 30° C., and the optical densities of each well were then measured at 600 nm. The value of the MIC corresponds to the first well for which the optical density had not changed.
(§3) The dishes were incubated for 24 h at 30° C. The value of the MBC corresponds to the lowest concentration of the peptide for which no colony developed.

Micrococcus luteus = format: cell-based
Method: as §1, §2, §3

Staphylococcus aureus = format: cell-based
Method: as §1, §2, §3

[1] = tested on: Staphylococcus epidermidis; format: cell-based
Method: as §1, §2, §3

Fusarium oxysporum = format: cell-based
Method: (§4) The anti-fungal activity was determined by calculating the MIC in a growth inhibition assay for the shrimp parasite fungus Fusarium oxysporum, in liquid phase, according to the protocol described by FELHBAM et al. (J. Biol. Chem., 1994, 269:33159-63). Doubling dilutions of each peptide were realized in the wells of a Microtest plate in a volume of 10 μl. 90 μl of spores resuspended in potato dextrose broth medium (DIFCO) at a final concentration of 10^4 spores/ml were added to each well. The growth inhibition was measured after incubation for 24 h at 25° C. in the dark, by observation under an optical microscope and measurement of the increase in OD at 600 nm. The value of the MIC corresponds to the first well for which the optical density had not increased.

Gram+ bacteria = settings: cited from earlier work
[2] = tested on: Gram+ and Gram− bacteria and a filamentous fungus; assay: Antibiotic tests on Gram+ and Gram- bacteria and on a filamentous fungus, summary in words; format: cell-based; settings: compared with the native molecule or the minimal loop
Method: as §1, §2, §3, §4
Using the 3-D structure of the native molecule as a basis, said molecule was fractionated into 17 elements (table I). All these fragments were synthesized and their activities were assayed using antibiotic tests on Gram+ and Gram− bacteria and on a filamentous fungus. The minimum inhibitory concentration (MIC) and minimum […] concentration (MBC) of each peptide were thus determined and were compared with those of the native molecule.

[3] = tested on: Gram+ and Gram− bacteria and a filamentous fungus; assay: as above; format: cell-based

Molecule	Bacillus megaterium MBC (Bacillus megaterium; Table II)	Bacillus megaterium MIC (Bacillus megaterium; Table II)	Micrococcus luteus MBC (Micrococcus luteus; Table II)	Micrococcus luteus MIC (Micrococcus luteus; Table II)	Staphylococcus aureus MBC (Staphylococcus aureus; Table II)	Staphylococcus aureus MIC (Staphylococcus aureus; Table II)	Staphylococcus epidermidis MBC ([1]; Table II)	Staphylococcus epidermidis MIC ([1]; Table II)	Fusarium oxysporum MIC (Fusarium oxysporum; Table II, 24 h at 25° C.)	Bacillus megaterium MBC (Bacillus megaterium; Bacillus)	Bacillus megaterium MIC (Bacillus megaterium; Bacillus)	Micrococcus luteus MBC (Micrococcus luteus)	Micrococcus luteus MIC (Micrococcus luteus)	MIC on M leuteus (Micrococcus luteus; 24 h)	Staphylococcus aureus MBC (Staphylococcus aureus)	Staphylococcus aureus MIC (Staphylococcus aureus)	Staphylococcus epidermidis MBC [1]	Staphylococcus epidermidis MIC [1]	Fusarium oxysporum MIC (Fusarium oxysporum; 24 h)	anti-microbial activity (in words) [2]	further results
GFGCPNNYQCHRHCKSIPGRCGGYCGGWHRLRCTCYRCG (listed as Mytilus galloprovincialis) [SEQ ID NO:3, Mytilus galloprovincialis defensin, small cationic protein of 4 kDa comprising 39 amino acids; native molecule, reference compound]	1.5 µM	0.8 µM	1.5 µM	0.6 µM	1.2 µM	0.6 µM	6.2 µM	3.1 µM	5 µM	–	–	–	–	–	–	–	–	–	–	–	MBC on M leuteus (Micrococcus luteus; Table 1, plating on MHA, 24 h at 30° C.): 2 µM; anti-bacterial and anti-fungal activity of MGD1 (in words) (Gram+ bacteria): has anti-bacterial activity against Gram+ bacteria and anti-fungal activity
N=C(N)NCCC[C@@H]1NC(=O)[C@H](CCCCN)NC(=O)[C@H](CCCNC(=N)N)NC(=O)[C@H](CCCCN)NC(=O)[C@H](Cc2c[nH]c3ccccc23)NC(=O)CNC(=O)CNC(=O)[C@@H](N)CSSC[C@@H](C(=O)O)NC1=O [SEQ ID NO:2, C^(S)GGWKRKRC^(S)] (H-CGGWKRKRC-OH; disulfide 1-9; N-terminus and C-terminus assumed)	–	–	–	–	–	–	–	–	–	>75 µM	24 µM	>75 µM	14 µM	13 µM (≈ 14.2 µg/mL)	33 µM	15 µM	>75 µM	20 µM	43 µM	increases the activity; also recorded: antibacterial potency greater than that of the cyclic peptide of sequence SEQ ID NO:1	–
CC(C)C[C@@H]1NC(=O)[C@H](CCCNC(=N)N)NC(=O)[C@H](Cc2c[nH]cn2)NC(=O)[C@H](Cc2c[nH]c3ccccc23)NC(=O)CNC(=O)CNC(=O)[C@@H]2CSSC[C@H](NC(=O)[C@H](CCCNC(=N)N)NC1=O)C(=O)N[C@@H]([C@@H](C)O)C(=O)N[C@@H](CO)C(=O)N[C@@H](Cc1ccc(O)cc1)C(=O)N[C@@H](CCCNC(=N)N)C(=O)N[C@H](C(=O)NCC(=O)O)CSSC[C@H](N)C(=O)NCC(=O)NCC(=O)N[C@@H](Cc1ccc(O)cc1)C(=O)N2 [SEQ ID NO:7, C^(S2)GGYC^(S1)GGWHRLRC^(S1)TSYRC^(S2)G] (H-CGGYCGGWHRLRCTSYRCG-OH; disulfide 1-18, 5-13; N-terminus and C-terminus assumed)	–	–	–	–	–	–	–	–	–	–	–	–	–	–	–	–	–	–	–	more active than the minimal structure	ability to lyse cells [3]: brings about the ability to lyse cells
CC(C)C[C@@H]1NC(=O)[C@H](CCCNC(=N)N)NC(=O)[C@H](Cc2c[nH]cn2)NC(=O)[C@H](Cc2c[nH]c3ccccc23)NC(=O)CNC(=O)CNC(=O)[C@@H](NC(=O)[C@H](Cc2ccc(O)cc2)NC(=O)CNC(=O)CNC(=O)[C@@H](N)CO)CSSC[C@@H](C(=O)O)NC(=O)[C@H](CCCNC(=N)N)NC1=O [SEQ ID NO:4, SGGYC^(S)GGWHRLRS^(S)] (H-SGGYCGGWHRLRC-OH; disulfide 5-13; N-terminus and C-terminus assumed)	–	–	–	–	–	–	–	–	–	>75 µM	52 µM	13 µM	26 µM	67 µM (≈ 97.1 µg/mL)	>75 µM	67 µM	>75 µM	38 µM	41 µM	–	–
CC(C)C[C@@H]1NC(=O)[C@H](CCCNC(=N)N)NC(=O)[C@H](Cc2c[nH]cn2)NC(=O)[C@H](Cc2c[nH]c3ccccc23)NC(=O)CNC(=O)CNC(=O)[C@@H](N)CSSC[C@@H](C(=O)O)NC(=O)[C@H](CCCNC(=N)N)NC1=O [SEQ ID NO:1, C^(S)GGWHRLRC^(S)] (H-CGGWHRLRC-OH; disulfide 1-9; N-terminus and C-terminus assumed)	50 µM	26 µM	50 µM	24 µM	75 µM	25 µM	50 µM	17 µM	28 µM	–	–	–	–	–	–	–	–	–	–	has anti-bacterial activity	MIC on M leuteus (Micrococcus luteus; Table 1, growth inhibition in liquid medium, 24 h at 30° C.): 33 µM (≈ 35.8 µg/mL)
